Experimental data published in the NIST ThermoML archive (doi:10.1021/je060271a).
Several values for one entry are separate records, joined by “and”; a condition that tells them apart may be missing. Identical values can stand only once.

Details: 283.16 K, Liquid, Vibrating tube method

CCCCCC(=O)OCC(COC(=O)CCCCC)(COC(=O)CCCCC)COC(=O)CCCCC [pentaerythritol tetrahexanoate]
Details	mass density
3863 kPa	1006.3 kg/m3
3877.2 kPa	1006.4 kg/m3
3895.2 kPa	1006.5 kg/m3
3920.3 kPa	1006.4 kg/m3
3938.5 kPa	1006.5 kg/m3
4764.4 kPa	1006.8 kg/m3
4769.6 kPa	1006.9 kg/m3
4781 kPa	1006.9 kg/m3
4797.5 kPa	1007 kg/m3
5309.2 kPa	1007.3 kg/m3
5315.8 kPa	1007.3 kg/m3
5321.5 kPa	1007.3 kg/m3
5327.9 kPa	1007.2 kg/m3
5334.1 kPa	1007.3 kg/m3
5341.5 kPa	1007.2 kg/m3
5347.3 kPa	1007.4 kg/m3
5354.7 kPa	1007.4 kg/m3
5361.1 kPa	1007.3 kg/m3
5367.3 kPa	1007.2 kg/m3
5373.4 kPa	1007.3 kg/m3
5380.6 kPa	1007.3 kg/m3
5386.9 kPa	1007.3 kg/m3
5392.9 kPa	1007.3 kg/m3
5400.4 kPa	1007.2 kg/m3
5406.9 kPa	1007.2 kg/m3
5413 kPa	1007.3 kg/m3
5419.4 kPa	1007.3 kg/m3
5426.8 kPa	1007.3 kg/m3
5432 kPa	1007.3 kg/m3
5438.4 kPa	1007.3 kg/m3
5446 kPa	1007.4 kg/m3
5521.9 kPa	1007.3 kg/m3
6618.4 kPa	1007.9 kg/m3
6623.1 kPa	1008.1 kg/m3
6626.7 kPa	1008 kg/m3
6630.5 kPa	1008.2 kg/m3
6653 kPa	1008 kg/m3
6657.1 kPa	1008.1 kg/m3
6661.4 kPa	1008 kg/m3
6666.3 kPa	1008 kg/m3
6670.4 kPa	1008 kg/m3
6722 kPa	1008 kg/m3
6726 kPa	1008.1 kg/m3
6730.2 kPa	1008.1 kg/m3
6734.1 kPa	1008.1 kg/m3
6738.3 kPa	1008 kg/m3
6743.3 kPa	1008.1 kg/m3
6747.1 kPa	1007.9 kg/m3
6750.9 kPa	1008 kg/m3
6755.6 kPa	1008 kg/m3
6763.5 kPa	1008.2 kg/m3
6768 kPa	1008 kg/m3
6772.6 kPa	1008 kg/m3
6775.9 kPa	1008.2 kg/m3 and 1008.1 kg/m3
6776.4 kPa	1008.1 kg/m3 and 1008 kg/m3
6783.8 kPa	1008 kg/m3
6784.2 kPa	1008.2 kg/m3
6784.5 kPa	1008 kg/m3
6785.8 kPa	1008.2 kg/m3
8353.5 kPa	1009.1 kg/m3
8367.6 kPa	1008.9 kg/m3
9689.3 kPa	1009.7 kg/m3 and 1009.8 kg/m3
9689.5 kPa	1009.7 kg/m3
9689.6 kPa	1009.7 kg/m3
9689.8 kPa	1009.7 kg/m3
9690.2 kPa	1009.8 kg/m3
9691.7 kPa	1009.7 kg/m3
9694.6 kPa	1009.8 kg/m3
9697.7 kPa	1009.8 kg/m3
9697.9 kPa	1009.8 kg/m3 and 1009.9 kg/m3
9702.1 kPa	1009.8 kg/m3
9711.5 kPa	1009.8 kg/m3
